Patent US11673889B2, “Substituted imidazo[4,5-c][1,8]naphthyridines as phosphodiesterase inhibitors” (Nanjing Zhengxiang Pharmaceuticals Co., Ltd., priority 2019, dated 2023)

Columns and labels:
[1] = target: T1, ENPP-1, MDA-MB-231 cells (Homo sapiens, UniProt P22413); assay: cell-based; conditions: for inhibition at 20 µM: MDA-MB-231, read-out: % Inhibition (at 20 μM)
T1 sequence (P22413 1-925): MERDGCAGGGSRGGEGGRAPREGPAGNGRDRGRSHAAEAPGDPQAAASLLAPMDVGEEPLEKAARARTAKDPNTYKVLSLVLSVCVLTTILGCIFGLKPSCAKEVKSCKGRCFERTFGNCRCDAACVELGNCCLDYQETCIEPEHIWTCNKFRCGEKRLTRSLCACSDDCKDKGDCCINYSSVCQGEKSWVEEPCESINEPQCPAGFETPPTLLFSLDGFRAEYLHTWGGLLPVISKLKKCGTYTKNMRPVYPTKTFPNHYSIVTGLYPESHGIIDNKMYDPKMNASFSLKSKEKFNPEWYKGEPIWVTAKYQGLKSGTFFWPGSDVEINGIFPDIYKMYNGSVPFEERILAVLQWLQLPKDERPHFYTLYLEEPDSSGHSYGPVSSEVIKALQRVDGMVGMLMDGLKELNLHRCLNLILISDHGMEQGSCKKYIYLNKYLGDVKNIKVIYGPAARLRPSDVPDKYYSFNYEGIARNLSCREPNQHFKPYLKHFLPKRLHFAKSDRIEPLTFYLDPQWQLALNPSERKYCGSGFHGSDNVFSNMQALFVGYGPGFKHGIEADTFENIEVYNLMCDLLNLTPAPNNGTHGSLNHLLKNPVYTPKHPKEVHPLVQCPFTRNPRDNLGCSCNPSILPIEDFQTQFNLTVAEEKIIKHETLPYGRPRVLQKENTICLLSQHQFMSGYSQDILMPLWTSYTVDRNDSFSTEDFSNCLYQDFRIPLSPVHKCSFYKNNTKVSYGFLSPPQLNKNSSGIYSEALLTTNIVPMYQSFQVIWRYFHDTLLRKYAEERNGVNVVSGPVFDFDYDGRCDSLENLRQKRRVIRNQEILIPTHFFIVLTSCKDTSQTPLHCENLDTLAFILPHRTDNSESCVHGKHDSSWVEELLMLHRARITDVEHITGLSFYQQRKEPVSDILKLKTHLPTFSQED

[2] = Pharmacokinetics in mice; assay type: in vivo; conditions: mouse, plasma, male CD-1 mice, 1 mg/kg, iv; for Vd: read-out: Vdss
Experimental: A dosing solution of test sample was prepared at 1.0 mg/mL in 5% DMSO/40% PEG400/55% water and administered to male CD-1 mice (4-6 weeks old, 20-30 grams, 3 animals each group) via intravenous (IV) bolus at 1 mg/kg and by oral gavage (PO) at 5 mg/kg. Blood samples (˜0.03 mL each time point) were collected via the jugular vein into tubes containing sodium heparin as the anticoagulant at 0.033, 0.083, 0.25, 0.5, 1, 2, 4, 8 and 24 hours post dose for IV administration and 0.083, 0.25, 0.5, 1, 2, 4, 8 and 24 hours post dose for PO administration. The blood samples were then centrifuged for 5 minutes in a centrifuge refrigerated at 4° C. The resultant plasma samples were analyzed using LC/MS/MS to determine concentrations of test sample. Non-compartmental model with WinNonlin (Phoenix™, version 8.0) software was used to calculate pharmacokinetic (PK) parameters.

[3] = target: T2, human soluble ENPP1 (Homo sapiens, UniProt P22413); assay: ENPP1 activity assay using p-Nitrophenyl-5′-TMP as a substrate; assay type: biochemical
T2 construct: 20 ng of human soluble ENPP1
T2 sequence (P22413 103-925 limits assumed): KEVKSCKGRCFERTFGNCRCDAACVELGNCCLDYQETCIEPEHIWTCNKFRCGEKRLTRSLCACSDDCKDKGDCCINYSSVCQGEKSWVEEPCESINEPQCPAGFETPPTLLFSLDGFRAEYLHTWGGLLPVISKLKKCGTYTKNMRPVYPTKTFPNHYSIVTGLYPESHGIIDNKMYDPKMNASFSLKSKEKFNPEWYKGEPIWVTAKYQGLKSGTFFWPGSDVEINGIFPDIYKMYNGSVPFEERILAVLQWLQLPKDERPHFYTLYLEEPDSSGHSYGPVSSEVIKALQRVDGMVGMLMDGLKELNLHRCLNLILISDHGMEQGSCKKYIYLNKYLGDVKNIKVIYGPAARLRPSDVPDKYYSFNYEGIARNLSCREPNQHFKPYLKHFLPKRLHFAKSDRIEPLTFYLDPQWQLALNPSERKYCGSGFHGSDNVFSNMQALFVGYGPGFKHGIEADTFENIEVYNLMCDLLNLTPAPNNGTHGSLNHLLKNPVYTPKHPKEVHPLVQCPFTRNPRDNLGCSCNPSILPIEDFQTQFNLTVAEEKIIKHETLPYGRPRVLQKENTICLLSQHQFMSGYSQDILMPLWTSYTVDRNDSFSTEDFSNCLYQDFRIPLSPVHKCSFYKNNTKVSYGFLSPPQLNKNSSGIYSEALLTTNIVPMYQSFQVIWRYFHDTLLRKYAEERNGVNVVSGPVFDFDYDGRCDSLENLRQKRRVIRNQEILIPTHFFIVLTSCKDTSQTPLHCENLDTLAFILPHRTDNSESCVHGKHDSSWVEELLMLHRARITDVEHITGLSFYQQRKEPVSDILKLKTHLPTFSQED
How it was run: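 Human soluble ENPP1 (20 ng) was preincubated with inhibitor for 30 min at room temperature. TMP-pNP was then added as a 2 mM […] solution and incubated 1 h at RT, with p-nitrophenol formation read by OD. IC50 came from four-parameter fits of % inhibition relative to no-inhibitor and blank controls.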

[4] = target: T2, human soluble ENPP1; assay: ENPP1 activity assay using p-Nitrophenyl-5′-AMP as a substrate; assay type: biochemical
How it was run: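 Human soluble ENPP1 (35 ng) preincubated with inhibitor 30 min at RT, then p-nitrophenyl-5′-AMP added (3 mM solution, 2× final) and incubated 1 h at RT. p-Nitrophenolate release read at OD 405 nm; % inhibition vs no-inhibitor and blank controls, IC50 from four-parameter fit.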

| Compound | IC50 [1] [nM] | inhibition at 20 µM [1] [%] | AUC [2] [ng·h/mL] | clearance [2] [mL/min/kg] | half-life [2] [h] | Vd [2] [L/kg] | IC50 [3] [nM] | IC50 [4] [nM] |
| --- | --- | --- | --- | --- | --- | --- | --- | --- |
| COc1ccc2c(ncc3nnn(Cc4ccc(S(N)(=O)=O)c(F)c4)c32)n1 [Compound 120, 2-fluoro-4-((7-methoxy-1H-[1,2,3]triazolo[4,5-c][1,8]naphthyridin-1-yl)methyl)benzenesulfonamide] | 1100 | 79 | 260 | 65 | 2 | 8.9 | 1.78 | 4.4 |
| COc1ccc2c(ncc3nc(C)n(Cc4ccc(S(N)(=O)=O)c(F)c4)c32)n1 [Compound 71, 2-fluoro-4-((7-methoxy-2-methyl-1H-imidazo[4,5-c][1,8]naphthyridin-1-yl)methyl)benzenesulfonamide] | 1100 | 76 | 288 | 60 | 0.74 | 2.8 | 1 | 2.9 |
| COc1ccc2c(ncc3ncn(Cc4ccc(S(N)(=O)=O)c(C(F)(F)F)c4)c32)n1 [Compound 65, 4-((7-methoxy-1H-imidazo[4,5-c][1,8]naphthyridin-1-yl)methyl)-2-(trifluoromethyl)benzenesulfonamide] | 1600 | 75 | 185 | 92 | 0.72 | 3.1 | 3 | 8.7 |
| COc1ccc2c(ncc3nc(CN4CCOCC4)n(Cc4ccc(S(N)(=O)=O)c(F)c4)c32)n1 [Compound 80, 2-fluoro-4-((7-methoxy-2-(morpholinomethyl)-1H-imidazo[4,5-c][1,8]naphthyridin-1-yl)methyl)benzenesulfonamide] | 1800 | 75 | 158 | 107 | 0.13 | 1 | 1.8 | 6.4 |
| COc1ccc2c(ncc3ncn(Cc4ccc(S(N)(=O)=O)c(F)c4)c32)n1 [Compound 61, 2-fluoro-4-((7-methoxy-1H-imidazo[4,5-c][1,8]naphthyridin-1-yl)methyl)benzenesulfonamide] | 780 | 80 | 271 | 62 | 1.4 | 4.5 | 0.53 | 1.9 |
| COc1ccc2c(ncc3cnn(Cc4ccc(S(N)(=O)=O)c(F)c4)c32)n1 [Compound 122a, 2-fluoro-4-((7-methoxy-1H-pyrazolo[4,3-c][1,8]naphthyridin-1-yl)methyl)benzenesulfonamide] | 1700 | 74 | 170 | 100 | 0.33 | 2 | 1.6 | 4.3 |

The next molecules have a lower IC50 [1] than those just listed; values first:

| IC50 [1] [nM] | inhibition at 20 µM [1] [%] | AUC [2] [ng·h/mL] | clearance [2] [mL/min/kg] | half-life [2] [h] | Vd [2] [L/kg] | IC50 [3] [nM] | IC50 [4] [nM] | Compound |
| --- | --- | --- | --- | --- | --- | --- | --- | --- |
| 560 | 82 | 253 | 66 | 0.86 | 2.2 | 0.8 | 2.4 | COc1ccc2c(ncc3nc(CC#N)n(Cc4ccc(S(N)(=O)=O)c(F)c4)c32)n1 [Compound 82, 4-((2-(cyanomethyl)-7-methoxy-1H-imidazo[4,5-c][1,8]naphthyridin-1-yl)methyl)-2-fluorobenzenesulfonamide] |
| 490 | 83 | 215 | 78 | 2.5 | 11 | 0.31 | 1.51 | COc1ccc2c(ncc3ncn([C@H](C)c4ccc(S(N)(=O)=O)cn4)c32)n1 [Compound 60, (R)-6-(1-(7-methoxy-1H-imidazo[4,5-c][1,8]naphthyridin-1-yl)ethyl)pyridine-3-sulfonamide] |
| 340 | 81 | 303 | 56 | 1.4 | 2.9 | 0.58 | 1.2 | COc1ccc2c(ncc3nc(C)n(Cc4ccc(S(N)(=O)=O)cn4)c32)n1 [Compound 72, 6-((7-methoxy-2-methyl-1H-imidazo[4,5-c][1,8]naphthyridin-1-yl)methyl)pyridine-3-sulfonamide] |
| 290 | 85 | 668 | 26 | 2.6 | 4.3 | 0.64 | 1.2 | COc1ccc2c(ncc3nc(C)n(Cc4cc(F)c(S(N)(=O)=O)cc4F)c32)n1 [Compound 70, 2,5-difluoro-4-((7-methoxy-2-methyl-1H-imidazo[4,5-c][1,8]naphthyridin-1-yl)methyl)benzenesulfonamide] |
| 120 | 83 | 301 | 56 | 1.4 | 4.5 | 0.7 | 1.1 | COc1ccc2c(ncc3nnn(Cc4ccc(S(N)(=O)=O)cn4)c32)n1 [Compound 119, 6-((7-methoxy-1H-[1,2,3]triazolo[4,5-c][1,8]naphthyridin-1-yl)methyl)pyridine-3-sulfonamide] |
| 85 | 81 | 138 | 123 | 1.4 | 14 | 0.09 | 0.12 | COc1ccc2c(ncc3nc(C4CC4)n(Cc4ccc(S(N)(=O)=O)cn4)c32)n1 [Compound 74, 6-((2-cyclopropyl-7-methoxy-1H-imidazo[4,5-c][1,8]naphthyridin-1-yl)methyl)pyridine-3-sulfonamide] |
| 45 | 89 | 163 | 105 | 4.9 | 39 | 0.1 | 1.5 | COc1ccc2c(ncc3ncn(Cc4ccc(S(N)(=O)=O)cc4F)c32)n1 [Compound 62, 3-fluoro-4-((7-methoxy-1H-imidazo[4,5-c][1,8]naphthyridin-1-yl)methyl)benzenesulfonamide] |
